Experimental findings from BindingDB's records for doi:10.7270/Q2TX3CTT (Broad Institute, 2010) are described below.

The structures appear in SMILES notation.

Sequence of Glycogen synthase kinase-3 beta (P49841 whole entry): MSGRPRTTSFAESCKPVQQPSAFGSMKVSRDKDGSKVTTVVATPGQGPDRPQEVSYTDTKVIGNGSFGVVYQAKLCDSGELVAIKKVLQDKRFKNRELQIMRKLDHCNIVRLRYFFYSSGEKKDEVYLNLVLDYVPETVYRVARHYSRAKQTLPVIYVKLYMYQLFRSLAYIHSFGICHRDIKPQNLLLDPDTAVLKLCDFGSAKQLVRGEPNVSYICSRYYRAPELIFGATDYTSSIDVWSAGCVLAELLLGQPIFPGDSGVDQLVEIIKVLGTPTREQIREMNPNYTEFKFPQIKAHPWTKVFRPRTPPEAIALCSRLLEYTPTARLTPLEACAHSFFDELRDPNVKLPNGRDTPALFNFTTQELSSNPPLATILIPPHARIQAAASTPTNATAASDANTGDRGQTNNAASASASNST

The test concerns the target Glycogen synthase kinase-3 beta (Homo sapiens, UniProt P49841). Nature of the test: GSK3beta kinase inhibitor potency, dose response, biochemical, luminescence, cell-free homogeneous, retest (AID 434954).
Regarding `COc1ccc(Nc2nc(N)c(C(=O)c3ccc(F)cc3)s2)cc1` [{4-amino-2-[(4-methoxyphenyl)amino]-1,3-thiazol-5-yl}(4-fluorophenyl)methanone], the midpoint of the response, the EC50, lay at 0.662 µM. Under `CC(=O)Nc1c(N)c2ccccc2oc1=O` [N-(4-amino-2-oxo-1-benzopyran-3-yl)acetamide] stands > 300 µM.

Turning to `Cc1ccc2nc3c(cc2c1)c(NC(=O)C1CCCO1)nn3CC(C)C` (stereo not drawn) [SMR000148636], the EC50 (usually the concentration at which the effect is half-maximal) was > 300 µM.

With `COc1ccc(Cl)cc1-c1nc(N)nc(NC2CCCCC2)n1` [MLS000698409], the EC50 is > 300 µM.

For `CS(=O)(=O)c1nncn1-c1ccccc1` [MLS000062086], the EC50 was > 300 µM.

Regarding `COc1ccccc1N1CCN(/N=C/c2ccc(Cl)c([N+](=O)[O-])c2)CC1`, the EC50 was > 300 µM. Under `COc1ccc(-c2nn(-c3ccccc3)cc2C=NNS(=O)(=O)c2ccccc2)cc1` stands > 300 µM; under `CCSc1ccc2nnc(-c3ccc(F)cc3)n2n1` [SMR000028943], 2.82 µM. With `Cc1ccc(-c2nc(Nc3cccc(O)c3)c3ccccc3n2)cc1` [MLS001196546], the EC50 is > 300 µM. For `CCCC(=O)Nc1nn(CC(C)C)c2nc3cc(C)ccc3cc12` [SMR000540561] the value was > 300 µM; for `CCN(CC)S(=O)(=O)c1cccc(-n2cc(O)c(-c3ccccc3)c2N)c1` [SMR000368326], > 300 µM; for `COc1cccc(/C=C2/Sc3ccc(C(=O)NCCCN4CCCC4)cc3NC2=O)c1`, 2.82 µM. For the molecule `CC(C)=CCc1c(O)cc2c(=O)c3ccc(O)cc3oc2c1O` [SMR000470963], the EC50 was > 300 µM. Take `COc1ccc(C(=O)c2coc3ccc(OC(C)=O)cc23)cc1`: the EC50 was > 300 µM. As for `Cc1ccc(C=NNC(=O)c2cncc(Br)c2)o1` [SMR000226283], the 50% effective concentration (EC50) was > 300 µM. Under `COc1cccc(C2c3c([nH]n(-c4ccccc4)c3=O)N=C3CCCC(=O)C32)c1` (stereo not drawn) [3-hydroxy-4-(3-methoxyphenyl)-2-phenyl-2,4,6,7,8,9-hexahydro-5H-pyrazolo[3,4-b]quinolin-5-one] stands > 300 µM. For `CCOC(=O)c1c(C)[nH]c(C)c1C(=O)CN1C(=O)NC(CC(C)C)C1=O` (stereo not drawn) [ethyl 2,5-dimethyl-4-[2-[4-(2-methylpropyl)-2,5-dioxoimidazolidin-1-yl]acetyl]-1H-pyrrole-3-carboxylate] the value was > 300 µM. As to `CC(=O)Nc1ccc(Cc2nc3c([nH]2)c(=O)n(C)c(=O)n3C)cc1` [SMR000528148], the EC50 was > 300 µM.

In the case of `CN1CCN(CCNC(=O)Nc2ccccc2[N+](=O)[O-])CC1` [N-[2-(4-methylpiperazin-1-yl)ethyl]-N'-(2-nitrophenyl)urea], the EC50 was > 300 µM.

For `Cc1ccc(S(=O)(=O)N/C(=N/C(C)C(=O)O)c2ccccc2)cc1` (stereo not drawn) [MLS000108658], the EC50 is > 300 µM.

For the molecule `COc1ccc(NC(=S)Nc2cccc(Cl)c2Cl)cc1OC`, the EC50 is > 300 µM.

On to `CN1CCc2c(sc3c2c(=O)n(-c2ccccc2)c2nnc(SCc4ccccc4)n32)C1` [SMR000039895], for which the EC50 is > 300 µM. For `NS(=O)(=O)c1cccc(NC(=O)COC(=O)/C(=C/c2cccs2)c2cccs2)c1` [SMR000242820], the EC50 is > 300 µM.

In the case of `Cc1ccc(-n2c(N)c(C(=O)NCc3cccnc3)sc2=S)cc1` [MLS000535145], the EC50 is > 300 µM. Turning to `CCCOC1CCCN(Cc2cn(C)nc2-c2ccccc2F)C1` (stereo not drawn) [1-[[3-(2-fluorophenyl)-1-methylpyrazol-4-yl]methyl]-3-propoxypiperidine], the EC50 is > 300 µM. Under `CC(=NNC(=O)c1nnn(-c2nonc2N)c1CN1CCC(C)CC1)c1cccc(Br)c1` [MLS001075097] stands 25.4 µM; under `CCC(OCC(O)CN1CCCCC1)c1ccccc1` (stereo not drawn), > 300 µM. As for `O=C(NNC(=O)C1CC1)c1cc2cc3ccccc3nc2s1` [MLS000763570], the EC50 is > 300 µM. For `N#Cc1c2n(c3c(=O)[nH]cnc13)CCCC2` the value was 56.4 µM; for `Cn1c(SCC(=O)NC2CCCCC2)nnc1-c1ccccn1`, > 300 µM; for `COc1ccc(-c2nn(CCC(=O)O)cc2C=NNC(N)=S)cc1` [3-[4-[(carbamothioylhydrazinylidene)methyl]-3-(4-methoxyphenyl)-1-pyrazolyl]propanoic acid], > 300 µM. In turn, `CCC(C)Oc1cc(-c2ccnc(Nc3cccc(Cl)c3)n2)ccn1` (stereo not drawn) [SMR000463563] came in with an EC50 of 5.38 µM. In the case of `CCc1ccc(S(=O)(=O)Nc2ccc(O)c3c(=O)cc(-c4ccccc4Cl)oc23)cc1` [SMR000465243], the EC50 was > 300 µM. For `O=C(NCC1COc2ccccc2O1)c1ccccc1` (stereo not drawn) [SMR000069822] the value was > 300 µM; for `COC(=O)C(C(=O)OC)c1ccc(NC(=O)c2cccc(Cl)c2)cc1` [dimethyl 2-{4-[(3-chlorobenzoyl)amino]phenyl}malonate], > 300 µM; for `O=C(O)c1ccccc1Nc1ccnc(Cl)n1` [2-[(2-chloro-4-pyrimidinyl)amino]benzoic acid], > 300 µM. As to `COc1ccc(N2CCN(c3cc(C)nc4ccc(OC)cc34)CC2)cc1` [MLS001174346], the EC50 is > 300 µM. `O=C(O)c1ccc(N=NCc2ccc(-c3cccc(Cl)c3)o2)cc1` [SMR000415894]: the EC50 is > 300 µM. For the molecule `CCc1ccccc1-n1c(O)cc(N2CCc3ccccc32)c1O` [SMR000285101], the EC50 was > 300 µM. For `CSc1nc(SCC(=O)NCC2CCCO2)c2c3c(sc2n1)CN(C)CC3` (stereo not drawn) [2-[(7-methyl-2-methylsulfanyl-6,8-dihydro-5H-pyrido[2,3]thieno[2,4-b]pyrimidin-4-yl)sulfanyl]-N-(oxolan-2-ylmethyl)ethanamide] the value was 22.8 µM; for `CN1CCc2c(sc3c2C(=O)NC(c2cccs2)N3)C1` (stereo not drawn), > 300 µM; for `COc1ccc(CCN(C)C(=O)c2ccc(S(=O)(=O)Nc3ccccc3C)cc2)cc1OC`, > 300 µM. Under `O=C(NN=CC1=CC(=O)C(=O)CC1)NN=CC1=CC(=O)C(=O)CC1` [1,3-bis[[(Z)-(3-hydroxy-4-oxocyclohexa-2,5-dien-1-ylidene)methyl]amino]urea] stands 13.3 µM. For the molecule `CCCCCCNC(=O)C(C(=O)OCC)C1CCCCC1` (stereo not drawn) [ethyl 2-cyclohexyl-3-(hexylamino)-3-oxidanylidene-propanoate], the EC50 is > 300 µM. For the molecule `Fc1ccccc1Nc1nc(-c2ccncc2)nc2ccccc12` [N-(2-fluorophenyl)-2-pyridin-4-yl-quinazolin-4-amine], the EC50 is > 300 µM. Under `O=C1Nc2ccc([N+](=O)[O-])cc2C1=NNC1CS(=O)(=O)CC1O` (stereo not drawn) [SMR000368316] stands 23 µM. `Nc1nc(NCCOCCO)nc(NCC2CCCO2)c1[N+](=O)[O-]` (stereo not drawn): the EC50 was determined as 16.7 µM. Take `Cc1ccc2c(c1)Oc1ccc([N+](=O)[O-])cc1C(=O)N2` [7-methyl-2-nitrodibenzo[b,f][1,4]oxazepin-11(10H)-one]: the concentration for a half-maximal effect (EC50) was > 300 µM. For `COC(CNc1nc(SC)nc2sc3c(c12)CCN(C)C3)OC` [MLS001215082] the value was > 300 µM; for `O=C(c1cccc(-c2ccccc2)c1)N1CC[C@@H](N2CCC(O)CC2)[C@H](O)C1`, > 300 µM; for `CN(C)C(CNC(=O)c1ccc2ccccc2c1)c1ccco1` (stereo not drawn) [SMR000377096], > 300 µM. As to `CC(C)c1ccc(NS(=O)(=O)c2ccc(Cl)nc2)cc1` [6-chloro-N-(4-propan-2-ylphenyl)pyridine-3-sulfonamide], the EC50 was > 300 µM. `CCN(CC)Cc1c(C(=O)NN=Cc2cccs2)nnn1-c1nonc1N` [1-(4-amino-1,2,5-oxadiazol-3-yl)-5-(diethylaminomethyl)-N-(thiophen-2-ylmethylideneamino)triazole-4-carboxamide] registered an EC50 of 5.16 µM.

With `Cc1ccnc(NC(=O)Cn2cc([N+](=O)[O-])cn2)c1` [SMR000307337], the EC50 is > 300 µM. As to `COc1cc(C2C3=C(CC(C)(C)CC3=O)N=C(C)C2C#N)ccc1O` (stereo not drawn) [4-(4-hydroxy-3-methoxyphenyl)-2,7,7-trimethyl-5-oxo-1,4,6,8-tetrahydroquinoline-3-carbonitrile], the EC50 is > 300 µM. As for `O=C(Cc1ccccc1)Nc1ccc(N2CCOCC2)cc1` [MLS000707957], the EC50 was > 300 µM. For `CCOc1cccc(-c2c(C(=O)NN=C(C)c3cccs3)nnn2-c2nonc2N)c1` [1-(4-azanyl-1,2,5-oxadiazol-3-yl)-5-(3-ethoxyphenyl)-N-(1-thiophen-2-ylethylideneamino)-1,2,3-triazole-4-carboxamide] the value was 96.9 µM. Under `COc1ccc(C=c2sc(=CC(=O)C(C)(C)C)[nH]c2=O)cc1O` [2-(3,3-dimethyl-2-oxidanylidene-butylidene)-5-[(4-methoxy-3-oxidanyl-phenyl)methylidene]-1,3-thiazolidin-4-one] stands 7.2 µM; under `C[N+](C)=c1ccn(CC(=O)N2c3ccccc3Sc3ccccc32)cc1`, > 300 µM; under `Cc1ccc(CNc2nc(N)c([N+](=O)[O-])c(Nc3cccc(F)c3)n2)cc1` [SMR000148340], > 300 µM. Under `Cc1nc2nc(=O)c3c(n2[nH]1)NC1=C(C(=O)CC(C)(C)C1)C3c1ccc(F)cc1` (stereo not drawn) [MLS000084336] stands > 300 µM; under `O=C1Nc2cc(C(=O)NCCCN3CCOCC3)ccc2S/C1=C/c1cccc(Cl)c1` [(2E)-2-[(3-chlorophenyl)methylidene]-N-(3-morpholin-4-ylpropyl)-3-oxidanylidene-4H-1,4-benzothiazine-6-carboxamide], 15.1 µM; under `COc1ccc(-c2nn(-c3ccccc3)cc2CO)cc1` [MLS000534260], > 300 µM. For `COc1ccc(-c2cc(C(=O)N3CCN(C(=O)c4ccco4)CC3)[nH]n2)cc1` [SMR000623613], the EC50 is > 300 µM. Take `O=C(O)c1ccccc1Nc1ccc([N+](=O)[O-])cc1`: the EC50 is > 300 µM. On to `O=C(c1cccs1)c1coc2ccc(O)cc12`, for which the EC50 came out at 4.73 µM. Under `Nc1nonc1-n1nnc(C(=O)NN=Cc2cccc(F)c2)c1CN1CCCCCC1` [1-(4-amino-1,2,5-oxadiazol-3-yl)-5-(1-azepanylmethyl)-N-[(3-fluorophenyl)methylideneamino]-4-triazolecarboxamide] stands 2.56 µM; under `O=C(Nc1ccccc1)C(=O)Nc1ccccn1` [N-Phenyl-N'-pyridin-2-yl-oxalamide], > 300 µM.
